# Laboratory results from US5900434A, “Method for inhibiting the production of interleukin-1 or tumor necrosis factor-α by administering acanthoic acid” (Korea Institute of Science and Technology, priority 1994, dated 1999).
# Legend:
# [1] = tested on: NIH3T3 fibroblasts; test: Inhibition of proliferation of NIH3T3 fibroblasts (3H-thymidine); assay type: cell-based; details: dialyzate of monocytes/macrophages treated with 10 μg/ml acanthoic acid and silica; 5 days; FIG. 6
# Experimental: NIH3T3 fibroblast(ATCC CRL 1658) was cultured in RPMI 1640 medium containing 10% FBS under the same conditions as described above. Acanthoic acid was added in various concentrations to 5×10^5 /ml of cells obtained in the above procedures, and the cells were precultured at 37° C. for 1 hour in 5% CO2 incubator. Then, 1 ml each of silica(100 μg/ml) and RPMI 1640 medium containing 2% FBS were added thereto and the cells were cultured under the same conditions as above for 48 hours. The culture supernatant was collected and centrifuged at 1,500 rpm for 10 minutes to remove the cells and silica. The obtained supernatant was dialyzed against PBS and filtered by 0.2 μm filtration syringe, and the filtrate was stored at -20° C. Fibrosis is caused largely by the proliferation of fibroblasts or by the synthesis of collagen. To confirm the effect of acanthoic acid on the proliferation of fibroblasts, human monocytes and macrophages were treated with 10 μg/ml of acanthoic acid and cultured according to the procedure as described in Reference Example 1 (3). The culture was dialyzed against PBS, and 50 μl of the dialyzate was added to the wells of an incubation plate. […] The amount of ^3 H-thymidine incorporated in the cell was determined by employing liquid scintillation counter(FIG. 6). […]
# [2] = tested on: O2^- production in human monocytes and macrophages; test: Production of O2^- in silica-stimulated human monocytes and macrophages; assay type: cell-based; details: 10 μg/ml, 1 hour, 100 μg/ml silica, FIG. 5
# Experimental: Normal human peripheral blood was heparin-treated and diluted with equal amount of Hank's balanced salt solution (HBSS: Ca^2+ and Mg^2+ free). The diluted blood was put into a centrifuge tube containing therein Ficoll-Hypaque(Sigma, St. Louis, Mo., U.S.A.) layer having a density of 1.077 piled up on Ficoll-Hypaque layer having a density of 1.119, and then centrifuged at 700×g for 30 minutes to obtain monocytes from the layer between Ficoll-Hypaque layer having a density of 1.077 and serum layer, and neutrophils from the layer between Ficoll-Hypaque layer having a density of 1.077 and that having a density of 1.119. The separated cells were washed twice with 4° C. HBSS(Ca^2+ and Mg^2+ free) and suspended in RPMI 1640 medium(Gibco, Grand Island, N.Y., U.S.A.) containing 10% fetal bovine serum(FBS, Hyclone, Logan, Utah, U.S.A.). The suspensions were added to the wells of 24-well incubation plate(Costar, Cambridge, Mass., U.S.A.) and incubated at 37° C. for 2 hours to obtain monocytes, macrophages and neutrophils. […] The change of color of the supernatant caused by the reduction of cytochrome C was measured at 550 nm by using a UV-Visible spectrophotometer (Kontron Instrument, Milano, Italy). […]
compound,measurement,setting,value
"C=C[C@@]1(C)CC=C2C(CCC3[C@](C)(C(=O)O)CCC[C@@]23C)C1 (single isomer, unassigned; (-)) [acanthoic acid, (-)-pimara-9(11),15-diene-19-oic acid]",proliferation of fibroblasts,[1],inhibited significantly
same,amount of O2^-,[2],decrease significantly
